Assay [1] has as its target KRAS^G12D mutant protein binding to RBD region fragment of RAF1 protein (Homo sapiens (Human), UniProt P01116, G12D). Kind of assay: KRAS-RAF1 binding assay (HTRF), KRAS G12D. The following applies: His-KRAS^G12D, GST-RAF1-RBD, GTP. As to the method: (§1) GST-RAF1-RBD was purchased from BPS Bioscience; Cat. NO.: 100519; KRAS^G12D was purchased from BPS Bioscience; Cat. NO.: 100623; KRAS^wt was purchased from Reactionbiology; GTP was purchased from Sigma; Cat. NO.: G8877; Mab Anti GST-XL665 was purchased from cisbio; Cat. NO.: 61GSTXLF; Eu-W1024-anti-6×HIS was purchased from PE; Cat. NO.: AD0111; ProxiPlate-384-Plates was purchased from PerkinElmer; Cat. NO.: 6008289; DMSO was purchased from VWR AMRESCO; Cat. NO.: 0231-500ML; microplate reader was purchased from PerkinElmer; Cat. NO.: Envison;
(§2) This experiment is intended to investigate the inhibitory effect of compounds on the binding of KRAS^G12D mutant protein or KRAS^Wt (wild type) protein to fragments of the RBD region fragment of RAF1 protein. A 500×3-fold gradient concentration stock of compound was prepared using DMSO and diluted 50-fold into a 10× stock of compound using reaction buffer. To the reaction wells of an ELISA plate (ProxiPlate-384-Plates), was first added 3 µL of His-KRAS^G12D protein or KRAS^wt protein, then added 1 μL of 200 µM GTP and incubated for 30 min, then added 2 μL of 10× compound or reaction buffer with 2% DMSO (positive control) and incubated for 30 min, then added 4 μL of GST-RAF1-RBD protein or reaction buffer (negative control) and incubated for 15 min, then added […] anti-His antibody and XL665-labeled anti-GST antibody mixed well in advance and incubated for 60 min before reading HTRF signal by microplate reader. The inhibition ratio of compounds on KRAS protein (G12D mutant or wild type) and RAF1 binding was calculated IR (%)=(positive control signal-compound well signal)/(positive control signal-negative control signal)×100% and IC50 values were calculated by fitting compound concentrations and corresponding inhibition ratios using the Prism 8 four-parameter method. […] While the inhibition IC50 values of the compounds on the binding of KRAS^wt (wild type) protein to the RBD region fragment of RAF1 protein was more than 40 nM or 100 nM, or more than 500 nM, or even more than 1 μM or 2 μM.

Assay [2] has as its target KRAS^wt (wild type) protein binding to RBD region fragment of RAF1 protein (Homo sapiens (Human), UniProt P01116). The assay can be described thus: KRAS-RAF1 binding assay (HTRF), KRAS wild type. Conditions: GST-RAF1-RBD, GTP. As to the method:
as §1, §2
For orientation: TR-FRET usually uses a lanthanide donor and a delayed reading to cut background.

Assay [3] deals with p-ERK in AGS cells (KRAS^G12D mutation). The assay can be described thus: Cell p-ERK detection assay. It counts as cell-based, human. Conditions: 3 h incubation, HTRF. As to the method: AGS was purchased from ATCC; Cat. NO.: CRL-1739; F12K was purchased from Gibco; Cat. NO.: 21127-022; FBS was purchased from Gibco; Cat. NO.: 10099-141C; Trypsin (containing EDTA) was purchased from Gibco; Cat. NO.: 25200-072; DMSO was purchased from VWRAMRESCO; Cat. NO.: 0231-500ML; 96-well cell culture plate was purchased from Corning; Cat. NO.: 3599; An white background opaque 96-well plate was purchased from Cisbio; Cat. NO.: 66PL96025; Advance ERK phospho-T202/Y204 kit was purchased from Cisbio; Cat. NO.: 64AERPEH; Cell Counters were purchased from CHEMOMETEC; Model NO.: NC-200; microplate reader was purchased from PerkinElmer; Model NO.: Envison.
AGS is an endogenous human gastric adenocarcinoma cell line containing KRAS^G12D mutation, cultured in F12K+10% FBS medium. On the first day of the experiment, cells in the logarithmic growth phase were taken, digested with trypsin (containing EDTA), collected, and counted, and approximately 20,000 cells/well were inoculated in 96-well cell culture plates and cultured overnight in a 5% CO2 incubator. A 1000×3.16-fold gradient concentration stock of the compound was prepared using DMSO, diluted 200-fold into a 5× compound stock using the medium described above, and a 5× compound stock was added to each cell culture well the day after cell inoculating at a final concentration of 1× and a DMSO content of 0.1%. DMSO was used as an experimental control. After the compound was added and the incubation was continued for 3 h, the medium in the culture wells was removed, […] of cell lysis solution (from Advance ERK phospho-T202/Y204 kit, the same below) was added to each well, mixed well and incubated for 30 min, then […] of the mixed solution was transferred to a white background opaque 96-well plate, and another well was taken as a blank well with adding […] of cell lysis solution. After the transfer, […] of p-ERK HTRF antibody mixed solution (from Advance ERK phospho-T202/Y204 kit) was added to each well, after incubation for 4 h, HTRF fluorescence value (RLU) was read by a microplate reader, and p-ERK level inhibition ratio of the compound was calculated IR (%)=(RLU control-RLU compound)/(RLU control-RLU blank)×100%, compound concentration and corresponding cell p-ERK level inhibition ratio were fitted using Prism 8 four-parameter method, and IC50 value was calculated.

In assay [4] the test system is AGS cells (KRAS^G12D mutation). Kind of assay: Cell proliferation inhibition assay (3D, CellTiter-Glo), AGS. It counts as cell-based, human. The following applies: 3D cell model, 5 days. An excerpt:
(§3) AsPC-1 was purchased from ATCC; Cat. NO.: CRL-1682; AGS was purchased from ATCC; Cat. NO.: CRL-1739; RPMI1640 was purchased from Gibco; Cat. NO.: 11875-093 2235123; F12K was purchased from Gibco; Cat. NO.: 21127-022; FBS was purchased from Gibco; Cat. NO.: 10099-141C; Trypsin (containing EDTA) was purchased from Gibco; Cat. NO.: 25200-072; CellTiter Glo-3D was purchased from Progema; Cat. NO.: G9683; 384-well sphere plates were purchased from coming; Cat. NO.: 3830; White background opaque 384-well plates were purchased from coming; Cat. NO.: 3570; Cell Counters were purchased from CHEMOMETEC; Model NO.: NC-200; microplate reader was purchased from PerkinElmer; Model NO.: Envison;
(§4) AsPC-1 is an endogenous human pancreatic cancer cell containing KRAS^G12D mutation, which is cultured in RPMI-1640 medium containing 10% FBS; AGS human gastric cancer cell line containing KRAS^G12D mutation, cultured in F-12K medium containing 10% FBS. Cells in the logarithmic growth phase were taken, digested with trypsin (containing EDTA), harvested and counted, and inoculated with 800 AsPC-1 cells/well or 400 AGS cells/well, respectively, in 384-well sphere plates and cultured overnight at 5% C02 to establish a 3D cell model. A 3.16-fold gradient concentration stock solution of 1000× compound was prepared using DMSO, diluted 100-fold into a 10× compound stock solution using media, and a 10× compound stock solution was added to each cell culture well the day after cell inoculating at a final concentration of 1× with a DMSO content of 0.1%. DMSO was used as an experimental control (control) and culture medium as a blank control (blank). After the addition of compounds, the cells were cultured for 5 days. […] CellTiter-Glo working solution was added to each well, mixed well, and incubated for 30 min. After standing for 30 min at room temperature, 40 μl of the mixed solution was transferred to a white background opaque 384-well plate. Luminescence chemiluminescence value was read on a microplate reader, and the cell proliferation inhibition ratio was calculated, IR (%)=(RLU control-RLU compound)/(RLU control-RLU blank)×100%. XLFit four-parameter method was used to fit the gradient dilution concentration of compounds and the corresponding cell proliferation inhibition ratio, and the IC50 value was calculated. […] Results for exemplary of the example compounds are shown in Table 3 below. - indicates not detected.
(ATP-based viability assays read luminescence as a measure of living cells.)

For assay [5], the system named is AsPC-1 cells (KRAS^G12D mutation). The assay can be described thus: Cell proliferation inhibition assay (3D, CellTiter-Glo), AsPC-1. It counts as cell-based, human. The following applies: 3D cell model, 5 days.
Description: as §3, §4

Each structure is given as a SMILES string.

Sequence of KRAS^G12D mutant protein binding to RBD region fragment of RAF1 protein (P01116-2 other isoform, or with tags, fused parts or gaps G12D): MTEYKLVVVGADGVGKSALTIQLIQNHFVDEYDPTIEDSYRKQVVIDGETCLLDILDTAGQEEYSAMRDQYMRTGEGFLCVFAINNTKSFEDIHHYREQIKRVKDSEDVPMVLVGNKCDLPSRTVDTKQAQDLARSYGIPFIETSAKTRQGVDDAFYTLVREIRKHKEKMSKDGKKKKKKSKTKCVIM
Sequence of KRAS^wt (wild type) protein binding to RBD region fragment of RAF1 protein (P01116-2 other isoform, or with tags, fused parts or gaps): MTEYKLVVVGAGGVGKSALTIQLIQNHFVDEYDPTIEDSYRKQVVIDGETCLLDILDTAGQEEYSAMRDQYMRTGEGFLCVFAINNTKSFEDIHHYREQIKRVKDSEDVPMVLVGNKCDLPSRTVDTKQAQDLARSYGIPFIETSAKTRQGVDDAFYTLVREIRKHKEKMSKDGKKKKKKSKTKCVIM

One may read the IC50 as the concentration at which inhibition is half-maximal. In the case of `C#Cc1c(F)ccc2cc(O)cc(-c3ncc4c(N5C[C@H]6CC[C@@H](C5)N6)nc(OC[C@]56CCCN5CC(=C)C6)nc4c3F)c12` (single isomer, unassigned) [Example Z13], the IC50 in assay [1] is 53.6 nM; in assay [2], 101 nM; in assay [3] (Homo sapiens, AGS, 3 h) it was 11 nM; in assay [4] (Homo sapiens, AGS, 120 h), 13 nM; in assay [5] (Homo sapiens, ASPC1, 120 h) it was 67.2 nM.
With `C#Cc1cccc2cc(O)cc(-c3ncc4c(N5CC6CCC(C5)C6N)nc(OCC56CCCN5CCC6)nc4c3F)c12` (stereo not shown) [Example Z1], the IC50 was 256 nM in assay [1] and 2610 nM in assay [2].
With `C#Cc1cccc2cc(O)cc(-c3ncc4c(N5CC6CCC(C5)C6N)nc(OCC56CCCN5CCC6)nc4c3F)c12` (stereo not shown) [Example Z2], the results for the IC50 in assay [1] and in assay [2] were 186 nM and 788 nM, respectively.
For the compound `C#Cc1c(F)ccc2cc(O)cc(-c3ncc4c(N5C[C@H]6CC[C@@H](C5)N6)nc(OCC56CCCN5CC(=C)C6)nc4c3F)c12` (stereo partly shown) [Example Z3], the 50% inhibitory concentration (IC50) was determined as 16.2 nM in assay [1]; 64.5 nM in assay [2]; 2.11 nM in assay [3]; 3 nM in assay [4]; 16 nM in assay [5].
Take `C#Cc1cccc2cc(O)cc(-c3ncc4c(N5C[C@H]6C=C[C@@H](C5)N6)nc(OCC56CCCN5CCC6)nc4c3F)c12` [Example Z4, 4-(4-((1R,5S)-3,8-diazabicyclo[3.2.1]oct-6-en-3-yl)-8-fluoro-2-((tetrahydro-1H-pyrrolizin-7a(5H)-yl)methoxy)pyrido[4,3-d]pyrimidin-7-yl)-5-ethynylnaphthalen-2-ol]: the 50% inhibitory concentration (IC50) in assay [1] was found to be 20.6 nM; in assay [2], 393 nM; in assay [3] (Homo sapiens, AGS, 3 h), 47.1 nM; in assay [4] (Homo sapiens, AGS, 120 h) it was 360 nM.
Take `C#Cc1cccc2cccc(-c3ncc4c(N5C[C@H]6C=C[C@@H](C5)N6)nc(OCC56CCCN5CCC6)nc4c3F)c12` [Example Z6, 4-((1R,5S)-3,8-diazabicyclo[3.2.1]oct-6-en-3-yl)-7-(8-ethynylnaphthalen-1-yl)-8-fluoro-2-((tetrahydro-1H-pyrrolizin-7a(5H)-yl)methoxy)pyrido[4,3-d]pyrimidine]: the IC50 in assay [1] was 51.6 nM; in assay [2], > 10000 nM; in assay [3] (Homo sapiens, AGS, 3 h), 426 nM; in assay [4] (Homo sapiens, AGS, 120 h), 815 nM.
As for `C#Cc1cccc2cc(O)cc(-c3ncc4c(N5C[C@@H]6N[C@H](C5)[C@@H]5C[C@@H]56)nc(OCC56CCCN5CCC6)nc4c3F)c12` [Example Z10, 5-ethynyl-4-(8-fluoro-2-((tetrahydro-1H-pyrrolizin-7a(5H)-yl)methoxy)-4-((1R, 2S, 4R, 5S)-7,9-diazatricyclo[3.3.1.0^2,4]nonan-7-yl)pyrido[4,3-d]pyrimidin-7-yl)naphthalen-2-ol], the IC50 was 62.9 nM in assay [1]; 119 nM in assay [2]; 215 nM in assay [3] (Homo sapiens, AGS, 3 h).
For the compound `C#Cc1cccc2cc(N)c(F)c(-c3ncc4c(N5C[C@H]6CC[C@@H](C5)N6)nc(OCC56CC(=C)CN5CC(=C)C6)nc4c3F)c12` [Example Z213, 4-(4-((1R,5S)-3,8-diazabicyclo[3.2.1]octan-3-yl)-2-((2,6-dimethylenetetrahydro-1H-pyrrolizin-7a(5H)-yl)methoxy)-8-fluoropyrido[4,3-d]pyrimidin-7-yl)-5-ethynyl-3-fluoronaphthalen-2-amine], the IC50 in assay [3] (Homo sapiens, AGS, 3 h) was found to be 62.9 nM; in assay [4] (Homo sapiens, AGS, 120 h), 57.5 nM; in assay [5] (Homo sapiens, ASPC1, 120 h), 335 nM.
Consider `C#Cc1cccc2cc(N)cc(-c3ncc4c(N5C[C@H]6CC[C@@H](C5)N6)nc(OCC56CC(=C)CN5CC(=C)C6)nc4c3F)c12` [Example Z214, 4-(4-((1R,5S)-3,8-diazabicyclo[3.2.1]octan-3-yl)-2-((2,6-dimethylenetetrahydro-1H-pyrrolizin-7a(5H)-yl)methoxy)-8-fluoropyrido[4,3-d]pyrimidin-7-yl)-5-ethynylnaphthalen-2-amine], for which the values for the IC50 in assay [3], in assay [4] and in assay [5] were 105 nM, 106 nM and 611 nM, respectively.
For `C#Cc1c(F)ccc2cc(O)cc(-c3ncc4c(N5C[C@H]6CC[C@@H](C5)N6)nc(OCC56CC(=C)CN5CC(=C(F)F)C6)nc4c3F)c12` (stereo partly shown) [Example Z215] the same measures were 1.19 nM, 5.13 nM and 49.4 nM.
With `C#Cc1c(Cl)ccc2cc(O)cc(-c3ncc4c(N5C[C@H]6CC[C@@H](C5)N6)nc(OCC56CC(=C)CN5CC(=C)C6)nc4c3F)c12` [Example Z216, 4-(4-((1R,5S)-3,8-diazabicyclo[3.2.1]octan-3-yl)-2-((2,6-dimethylenetetrahydro-1H-pyrrolizin-7a(5H)-yl)methoxy)-8-fluoropyrido[4,3-d]pyrimidin-7-yl)-6-chloro-5-ethynylnaphthalen-2-ol], the IC50 in assay [3] (Homo sapiens, AGS, 3 h) was 1.22 nM; in assay [4] (Homo sapiens, AGS, 120 h), 3.14 nM; in assay [5] (Homo sapiens, ASPC1, 120 h), 43.7 nM.

The values above are taken from US20240270758A1, “PYRIDINO-OR PYRIMIDO-CYCLIC COMPOUND, PREPARATION METHOD THEREFOR AND MEDICAL USE THEREOF” (Genfleet Therapeutics (Shanghai) Inc., priority 2021, published 2024).
